Data taken from US20230218558A1, “NOVEL THERAPEUTIC USE OF PLEUROMUTILINS” (priority 2020, published 2023).
In brackets after ≈: the same amount, converted by molar mass. Where two headings read alike, the source gives them in different places.

Experiments:
Huh7 cells = test: Cell viability, Huh7 cells, XTT
[1] = test system: influenza A virus, porcine reproductive and respiratory syndrome virus (PRRSV) type 1 and 2; conditions: WO 2009/106839; 4 hours post inoculation; cited from earlier work
[2] = test system: Measles virus strain Edmonston; test: microbe, parasite or virus in culture; type: cell-based; conditions: Measles morbillivirus, HeLa
MRC-5 cells [3] = conditions: human
MRC-5 cells [4] = test: Cell viability of uninfected drug control wells, MRC-5 cells, XTT; conditions: Example 1; for cytotoxic effect on the viability of the cell control: concentration 10 μM (b103 prints 10 M for Lefamulin); for cytotoxic effect: concentration 50 μM
HEp2 cells = test: Cell viability of uninfected drug control wells, HEp2 cells, XTT; conditions: Example 3
[5] = test system: influenza virus strain A/PR/8/34; test: Inhibition of virus-induced CPE, influenza virus in MDCK cells; type: cell-based
HeLa cells = test: Cell viability, HeLa cells, XTT; conditions: read-out: TC50, Example 6
MDCK cells = conditions: Example 10; for CC50: read-out: TC50, MDCK cells
[6] = test system: influenza A/Puerto Rico/8/34 (H1N1); type: in vivo, BALB/c mice; conditions: for effect on bodyweight / bodyweight loss: SC, investigated doses, FIG. 7A; for lung viral titre (TCID50 on MDCK cells): Day 3 and Day 6, Lefamulin at both doses, compared with vehicle treated control
[7] = test system: human rhinovirus strain HRV16 strain 11757; test: Inhibition of virus-induced CPE, human rhinovirus in H1-HeLa cells; type: cell-based; conditions: Example 9, rhinovirus HRV1611757, 4 h pretreatment, MOI 0.0005
Method: Cell viability determination as well as EC50 and TC50 calculations were performed as described in Examples 1 and 3.

[8] = test system: influenza A virus strain (PR8); conditions: concentration of 2 mg/mL; cited from earlier work
[9] = test system: vesicular stomatitis virus (VSV); conditions: cited from earlier work
[10] = test system: herpes simplex type 1 (HSV-1) virus; conditions: cited from earlier work
polio virus = conditions: cited from earlier work
[11] = read-out: TC50, Example 8, Zika experiment
[12] = high dose: 105 mg/kg/day SC in three injections until day 3, then 70 mg/kg twice daily

CC(C)OC(=O)[C@H](C)N[P@](=O)(OC[C@H]1O[C@@H](n2ccc(=O)[nH]c2=O)[C@](C)(F)[C@@H]1O)Oc1ccccc1 [Sofosbuvir]
CC50 (Huh7 cells; [11]): > 10 µM

C=C[C@]1(C)C[C@@H](OC(=O)CSC(C)(C)CNC(=O)[C@H](N)C(C)C)[C@]2(C)[C@H](C)CC[C@]3(CCC(=O)[C@H]32)[C@@H](C)[C@@H]1O [Valnemulin]
antiviral activity [1]: did not exhibit antiviral activity

NC(=O)c1ncn([C@@H]2O[C@H](CO)[C@@H](O)[C@H]2O)n1 [Ribavirin]
EC50 [2]: 1.88 µg/mL (≈ 7.7 µM)

CCC(CC)COC(=O)[C@H](C)N[P@](=O)(OC[C@H]1O[C@@](C#N)(c2ccc3c(N)ncnn23)[C@H](O)[C@@H]1O)Oc1ccccc1 [Remdesivir]
CC50 (MRC-5 cells [3]): > 5 µM

C=C[C@]1(C)C[C@@H](OC(=O)CSCCN(CC)CC)[C@]2(C)[C@H](C)CC[C@]3(CCC(=O)[C@H]32)[C@@H](C)[C@@H]1O [Tiamulin]
cytotoxic effect on the viability of the cell control (MRC-5 cells [4]): no cytotoxic effect was observed | cytotoxic effect (MRC-5 cells [4]): a cytotoxic effect was observed | CC50 (MRC-5 cells [3]; 6 days): 62.9 µM | viability (HEp2 cells; concentration 10 μM): 84% | viability (HEp2 cells; concentration 50 μM): 70.0%

C=C[C@]1(C)C[C@@H](OC(=O)CS[C@@H]2CC[C@@H](N)C[C@H]2O)[C@]2(C)C(C)CC[C@]3(CCC(=O)[C@H]32)[C@@H](C)[C@@H]1O (stereo partly drawn) [Lefamulin, 14-O-{[(1R, 2R, 4R)-4-amino-2-hydroxy-cyclohexylsulfanyl]-acetyl}-mutilin]
EC50 [5]: > 23800 nM | CC50 (HeLa cells): 72.7 µM | concentrations cytotoxic to MDCK cells (MDCK cells): greater than 23 μM | CC50 (MDCK cells): 23.8 µM | cytotoxic effect on the viability of the cell control (MRC-5 cells [4]): no cytotoxic effect | cytotoxic effect (MRC-5 cells [4]): cytotoxic effect | TC50 (MRC-5 cells [4]; uninfected MRC-5 cells, 6 days): 55.3 µM | effect on bodyweight / bodyweight loss ([6]; BALB/c mice): did not have a significant effect | lung viral titre (TCID50 on MDCK cells) [6]: reduced lung viral titres | clinical scores compared to vehicle [6, 12]: increase in clinical scores | survival compared to vehicle [6, 12]: decrease in survival | bronchial degeneration and alveolar inflammation (histopathology) ([6]; high dose, Day 6 lungs, compared to vehicle): significant reduction | overall histopathology score ([6]; high dose, Day 6 lungs, compared to vehicle treated control): overall significant reduction | survival ([6]; lower dose: 35 mg/kg SC twice daily (70 mg/kg/day), until day 6): 90% | CC50 (Huh7 cells; read-out: TC50, Example 7, Dengue experiment): 23.3 µM | CC50 (Huh7 cells; [11]): 23.4 µM | EC50 [7]: 9.34 µM | cytotoxic effect (HEp2 cells; concentration 100 μM): cytotoxic effect | cytotoxic effect on the viability of the cell control (HEp2 cells; concentrations 10 μM and 50 μM): no cytotoxic effect

CCOC(=O)/C=C/[C@H](C[C@@H]1CCNC1=O)NC(=O)[C@@H](CC(=O)[C@@H](NC(=O)c1cc(C)on1)C(C)C)Cc1ccc(F)cc1 [Rupintrivir]
EC50 [7]: 0.0049 µM

C=C[C@]1(C)C[C@@H](OC(=O)CO)[C@]2(C)[C@H](C)CC[C@]3(CCC(=O)[C@H]32)[C@@H](C)[C@@H]1O [Pleuromutilin]
antiviral activity [8]: antiviral activity | activity against vesicular stomatitis virus [9]: activity | concentration that conferred a 50% protection of the cytopathic effect induced by HSV-1 (CPE50) [10]: 15 µg/mL | EC50 ([10]; read-out: concentration that conferred a 50% protection of the cytopathic effect induced by HSV-1 (CPE50)): 40 µM | antiviral activity (polio virus): did not show antiviral activity

CCOC(=O)C1=C[C@@H](OC(CC)CC)[C@H](NC(C)=O)[C@@H](N)C1 [Oseltamivir]
EC50 [5]: 60 nM | CC50 (MDCK cells): > 200 µM | effect on bodyweight / bodyweight loss ([6]; BALB/c mice): reduction | clinical scores ([6]; BALB/c mice, positive control treatment, FIG. 7B): reduction | lung viral titre (TCID50 on MDCK cells) [6]: reduced lung viral titres
